According to US10909691B2, “Automatically classifying animal behavior” (PRESIDENT AND FELLOWS OF HARVARD COLLEGE, priority 2016, dated 2021):

Tested on: mice
Assay: Innate behavioral response to odorant in square odor box (3D depth imaging, AR-HMM analysis)
Assay type: in vivo, mouse

## CC1=NC(C)SC1C (stereo not drawn) [TMT]
TMT delivered to one quadrant of the square box via olfactometer
  observed behavior of mice on odor exposure: avoided the quadrant containing the predator cue and displayed prolonged periods of immobility traditionally described as freezing behavior
After TMT exposure
  per frame entropy rate with self-transitions: 0.64±0.02 bits
  per frame entropy rate without self-transitions: 3.66±0.08 bits
After TMT exposure, in 300 minutes of imaging
  number of times the most commonly-expressed freezing trigram was expressed: 716 times
n=15 in TMT, n=25 control, model co-trained on both datasets
  change in behavioral modules relative to control: several modules were up-or down-regulated after TMT exposure, but no new modules were introduced or eliminated relative to control
Under the influence of TMT, 5% concentration, delivered to one quadrant of the box
  average during-sequence velocity of freezing module sequences: −0.14±0.54 mm/sec
